A short description of series [1]: in vitro release kinetics of sirolimus and cilostazol from coated stent. It counts as physicochemical. To be noted: stent of FIG. 11 (sirolimus and cilostazol in one EVA/BMA layer, 100 μg BMA overcoat); FIG. 10.
On series [2], the source says:
Referring to FIG. 29, there is illustrated the cumulative in vivo drug release percentages from a reservoir eluting stent for each drug over a thirty day period. Curve 2902 represents the profile for cilostazol while curve 2904 represents the profile for sirolimus. FIG. 30 is a graphical representation of the amount of each drug, in micrograms, released in vivo. Curve 3002 represents the profile for cilostazol while curve 3004 represents the profile for sirolimus. The curves in the figures illustrate that both the drugs elute independently of each other with minimal or substantially no interaction. […] Since the amount of drug (by weight) is different for the drugs in their respective reservoirs, the total amount of drug released at thirty (30) days was higher for sirolimus as compared to cilostazol.

Series [3] in a line: porcine drug elution PK study of the dual drug eluting coating. It counts as in vivo. The following applies: after eight (8) days of implantation; stent of FIG. 11 (sirolimus and cilostazol in one EVA/BMA layer, 100 μg BMA overcoat). An excerpt:
Another critical parameter for the performance of the thrombus resistance of a device coated with cilostazol is the duration of the drug release from the coating. This is of particular significance in the two weeks after device implantation. In the porcine drug elution PK studies of the dual drug eluting coating, both cilostazol and sirolimus were slowly released from the coating, resulting in a sustained drug release profile. The purpose of the porcine PK study is to assess the local pharmacokinetics of a drug eluting stent at a given implantation time. Normally three stents are implanted in three different coronary arteries in a pig for a given time point and then retrieved for total drug recovery analysis. The stents are retrieved at predetermined time points; namely, 1, 3 and 8 days. The stents are extracted and the total amount of drug remaining on the stents is determined by analysis utilizing HPLC (high performance liquid chromatography) for total drug amount. The difference between the original amount of drug on the stent and the amount of drug retrieved at a given time represents the amount of drug released in that period. The continuous release of drug into surrounding arterial tissue is what prevents the neointimal growth and restenosis in the coronary artery. A normal plot represents the percentage of total drug released (%, y-axis) vs. time of implantation (day, x-axis). […]

Series [4] deals with platelet deposition and thrombus formation on the stent surface. Briefly: in vitro bovine blood loop model. The following applies: sirolimus/cilostazol combination coatings, FIG. 8. From the text: The anti-thrombotic efficacy of the above-described three configurations is illustrated in FIG. 8. FIG. 8 illustrates the anti-thrombotic properties of the sirolimus/cilostazol combination coatings described above in an in vitro bovine blood loop model. In the in vitro bovine blood loop model, fresh bovine blood is heparinized to adjust for […] (ACT) of about two hundred (200) seconds. The platelet content in the blood is labeled through the use of Indium 111. In the study, a stent is deployed in a silicone tube, which is part of a closed loop system for blood circulation. The heparinzed blood is circulated through the closed loop system by means of a circulating pump. Blood clots and thrombus builds up on a stent surface over time and reduces the flow rate of blood through the stented loop. The flow is stopped when the flow rate is reduced to fifty (50) percent of the starting value or at ninety (90) minutes if none of the tested stent reduces the flow by fifty (50) percent. The total radioactivity (In 111) on the stent surface is counted by a […] and normalized with the control unit, set as one hundred (100) percent in the chart. […]

Each structure is given as a SMILES string.

In series [1], `O=C1CCc2cc(OCCCCc3nnnn3C3CCCCC3)ccc2N1` [cilostazol, 6[4-(1-cyclohexyl-1H-tetrazol-5-yl)-butoxy]-3,4-dihydro-2-(1H)-quinolinone] registered an in vitro release of around 35%. The “cumulative in vivo elution” value in series [2] was “sixty (60) to seventy (70)”. The “drug remained in the drug coating” value in series [3] is listed as around 80%. Further, the thrombus formation result in series [4] is reported as “significantly reduces thrombus formation”.
Regarding `CO[C@H]1C[C@@H]2CC[C@@H](C)[C@@](O)(O2)C(=O)C(=O)N2CCCC[C@H]2C(=O)O[C@H]([C@H](C)C[C@@H]2CC[C@@H](O)[C@H](OC)C2)CC(=O)[C@H](C)/C=C(\C)[C@@H](O)[C@@H](OC)C(=O)[C@H](C)C[C@H](C)/C=C/C=C/C=C/1C` [Rapamycin], the “cumulative in vivo elution” value in series [2] is listed as “sixty (60) to seventy (70)”. The “drug remained in the drug coating” value in series [3] was around 80%.

The values are drawn from patent US9327060B2 (CARDINAL HEALTH SWITZERLAND 515 GmbH, priority 2009, dated 2016).
